≈ marks a conversion by molar mass, not a printed value. Where two headings read alike, the source gives them in different places.
What was measured:
[1] = system: Mycoplasma hyorhinis 29E; experiment: broth-dilution microtiter MIC test; assay type: cell-based; settings: Mycoplasma, 29E
Description: (§1) The MIC's in Table III were determined by standard agar-dilution assays. The MIC's in Table IV were obtained using conventional brothdilution microtiter tests.

[2] = system: Pasteurella hemolytica 22C; experiment: broth-dilution microtiter MIC test; assay type: cell-based; settings: Pasteurella, 22C
Description: as §1

[3] = system: Pasteurella multocida 60A; experiment: broth-dilution microtiter MIC test; assay type: cell-based; settings: Pasteurella multocida, 60A
Description: as §1

[4] = system: Mycoplasma gallisepticum 15E; experiment: broth-dilution microtiter MIC test; assay type: cell-based; settings: Mycoplasmoides gallisepticum, 15E
Description: as §1

[5] = system: Bordetella bronchiseptica; experiment: broth-dilution microtiter MIC test; assay type: cell-based; settings: Bordetella bronchiseptica
Description: as §1

[6] = system: Staphylococcus aureus 19C; experiment: broth-dilution microtiter MIC test; assay type: cell-based; settings: Staphylococcus aureus, 19C
Description: as §1

[7] = system: Mycoplasma synoviae 40A; experiment: broth-dilution microtiter MIC test; assay type: cell-based; settings: Mycoplasmopsis synoviae, 40A
Description: as §1

[8] = system: Pasteurella multocida 40G; experiment: broth-dilution microtiter MIC test; assay type: cell-based; settings: Pasteurella multocida, 40G
Description: as §1

[9] = system: Mycoplasma gallisepticum 36H; experiment: broth-dilution microtiter MIC test; assay type: cell-based; settings: Mycoplasmoides gallisepticum, 36H
Description: as §1

[10] = system: Pasteurella hemolytica 41D; experiment: broth-dilution microtiter MIC test; assay type: cell-based; settings: Pasteurella, 41D
Description: as §1

[11] = system: Pasteurella multocida 68C; experiment: broth-dilution microtiter MIC test; assay type: cell-based; settings: Pasteurella multocida, 68C
Description: as §1

[12] = system: Streptococcus sp. 19F; experiment: broth-dilution microtiter MIC test; assay type: cell-based; settings: Streptococcus, SP.19F
Description: as §1

[13] = system: Mycoplasma gallisepticum 29C; experiment: broth-dilution microtiter MIC test; assay type: cell-based; settings: Mycoplasmoides gallisepticum, 29C
Description: as §1

[14] = system: Pasteurella multocida 22A; experiment: broth-dilution microtiter MIC test; assay type: cell-based; settings: Pasteurella multocida, 22A
Description: as §1

[15] = system: Pasteurella hemolytica 23C; experiment: broth-dilution microtiter MIC test; assay type: cell-based; settings: Pasteurella, 23C
Description: as §1

[16] = system: Pasteurella multocida 17E; experiment: broth-dilution microtiter MIC test; assay type: cell-based; settings: Pasteurella multocida, 17E
Description: as §1

[17] = system: Streptococcus pyogenes C203; experiment: protection of mice experimentally infected with S. pyogenes C203; assay type: in vivo; settings: mice, mg/kg × 2, doses given 1 and 4 hours postinfection, read-out: ED50
Outline: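 Activity is given as ED50, the mg/kg dose (×2) protecting half of the mice infected with S. pyogenes C203. Compound was dosed 1 and 4 h after infection.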

[18] = system: Streptococcus Group D 9960; experiment: standard agar-dilution MIC assay; assay type: cell-based; settings: GROUPD9960, read-out: MIC
Description: as §1

[19] = system: Staphylococcus aureus X400; experiment: standard agar-dilution MIC assay; assay type: cell-based; settings: Staphylococcus aureus, X400
Description: as §1

[20] = system: Staphylococcus epidermidis EPI1; experiment: standard agar-dilution MIC assay; assay type: cell-based; settings: Staphylococcus epidermidis, EPI1
Description: as §1

[21] = system: Staphylococcus aureus X1.1; experiment: standard agar-dilution MIC assay; assay type: cell-based; settings: Staphylococcus aureus, X1.1
Description: as §1

[22] = system: Streptococcus pyogenes C203; experiment: standard agar-dilution MIC assay; assay type: cell-based; settings: Streptococcus pyogenes, C203
Description: as §1

[23] = system: Staphylococcus aureus V41; experiment: standard agar-dilution MIC assay; assay type: cell-based; settings: Staphylococcus aureus, V41
Description: as §1

[24] = system: Haemophilus influenzae 76; experiment: standard agar-dilution MIC assay; assay type: cell-based; settings: Haemophilus influenzae, 76
Description: as §1

[25] = system: Staphylococcus epidermidis EP12; experiment: standard agar-dilution MIC assay; assay type: cell-based
Description: as §1

[26] = system: Pseudomonas aeruginosa X239; experiment: standard agar-dilution MIC assay; assay type: cell-based; settings: Pseudomonas aeruginosa, X239
Description: as §1

[27] = system: Escherichia coli EC14; experiment: standard agar-dilution MIC assay; assay type: cell-based
Description: as §1

[28] = system: Streptococcus Group D X66; experiment: standard agar-dilution MIC assay; assay type: cell-based; settings: read-out: MIC
Description: as §1

[29] = system: Haemophilus influenzae C.L.; experiment: standard agar-dilution MIC assay; assay type: cell-based; settings: Haemophilus influenzae; agar-dilution; Ampicillin-sensitive strain; read-out: MIC
Description: as §1

[30] = system: Klebsiella pneumoniae X68; experiment: standard agar-dilution MIC assay; assay type: cell-based; settings: Klebsiella pneumoniae, X68
Description: as §1

[31] = system: Streptococcus pneumoniae Park I; experiment: microbe, parasite or virus in culture; assay type: cell-based; settings: Streptococcus pneumoniae
Description: as §1

[32] = system: Staphylococcus aureus S13E; experiment: microbe, parasite or virus in culture; assay type: cell-based; settings: Staphylococcus aureus, S13E
Description: as §1

[33] = broth-dilution microtiter, read-out: MIC

CCC1OC(=O)CC(O)C(C)C(OC2OC(C)C(OC3CC(C)(O)C(O)C(C)O3)C(N(C)C)C2OC(C)=O)C(CC=O)CC(C)C(=O)C=CC(C)=CC1COC1OC(C)C(OC(C)=O)C(O)C1OC (stereo not drawn) [Compound 1, 2',4'"-Di-O-acetyl-macrocin]
MIC [1, 33]: 25 µg/mL (≈ 25.4 µM) | MIC [2]: > 50 µg/mL | MIC [3]: > 50 µg/mL | MIC [4]: > 50 µg/mL | MIC [5]: > 50 µg/mL | MIC [6, 33]: 6.25 µg/mL (≈ 6.34 µM) | MIC [7, 33]: 1.56 µg/mL (≈ 1.58 µM) | MIC [8]: > 50 µg/mL | MIC [9]: > 50 µg/mL | MIC [10]: > 50 µg/mL | MIC [11]: > 50 µg/mL | MIC [12, 33]: 3.12 µg/mL (≈ 3.16 µM) | MIC [13, 33]: 0.78 µg/mL (≈ 0.791 µM) | MIC [14]: > 50 µg/mL | MIC [15]: > 50 µg/mL | MIC [16]: > 50 µg/mL | ED50 ([17]; C203, Oral): 43.5 mg/kg | ED50 ([17]; C203, sc, Subcutaneous): 6.6 mg/kg | MIC [18]: 4 µg/mL (≈ 4.06 µM) | MIC [19]: 4 µg/mL (≈ 4.06 µM) | MIC ([20]; agar-dilution, read-out: MIC): 2 µg/mL (≈ 2.03 µM) | MIC ([21]; agar-dilution, read-out: MIC): 2 µg/mL (≈ 2.03 µM) | MIC [22]: 1 µg/mL (≈ 1.01 µM) | MIC ([23]; agar-dilution, Penicillin-resistant strain, read-out: MIC): 2 µg/mL (≈ 2.03 µM) | MIC [24]: 1 µg/mL (≈ 1.01 µM) | MIC ([25]; agar-dilution, read-out: MIC): 2 µg/mL (≈ 2.03 µM) | MIC [26]: > 128 µg/mL | MIC [27]: > 128 µg/mL | MIC [28]: 4 µg/mL (≈ 4.06 µM) | MIC [29]: 64 µg/mL (≈ 64.9 µM) | MIC [30]: > 128 µg/mL | MIC ([31]; agar-dilution, read-out: MIC): 0.5 µg/mL (≈ 0.507 µM) | MIC [32]: 4 µg/mL (≈ 4.06 µM)

CCC1OC(=O)CC(O)C(C)C(OC2OC(C)C(OC3CC(C)(O)C(O)C(C)O3)C(N(C)C)C2OC(C)=O)C(CC=O)CC(C)C(=O)C=CC(C)=CC1COC1OC(C)C(OC(=O)CC(C)C)C(O)C1OC (stereo not drawn) [Compound 5, 2'-O-Acetyl-4'"-O-isovaleryl-macrocin]
MIC [1]: 1.56 µg/mL (≈ 1.52 µM) | MIC [2, 33]: > 50 µg/mL | MIC ([3]; broth-dilution microtiter, Avian isolate, read-out: MIC): > 50 µg/mL | MIC [4]: 50 µg/mL (≈ 48.6 µM) | MIC [5, 33]: > 50 µg/mL | MIC [6]: 3.12 µg/mL (≈ 3.03 µM) | MIC [7]: 1.56 µg/mL (≈ 1.52 µM) | MIC [8, 33]: > 50 µg/mL | MIC [9]: 50 µg/mL (≈ 48.6 µM) | MIC [10, 33]: > 50 µg/mL | MIC [11]: 50 µg/mL (≈ 48.6 µM) | MIC [12]: 1.56 µg/mL (≈ 1.52 µM) | MIC [13]: 1.56 µg/mL (≈ 1.52 µM) | MIC [14, 33]: > 50 µg/mL | MIC [15, 33]: > 50 µg/mL | MIC ([16]; broth-dilution microtiter, Bovine isolate, read-out: MIC): > 50 µg/mL | ED50 ([17]; C203, Oral): 54.3 mg/kg | ED50 ([17]; C203, sc, Subcutaneous): 9.2 mg/kg | MIC [18]: 2 µg/mL (≈ 1.95 µM) | MIC [19]: 4 µg/mL (≈ 3.89 µM) | MIC [20]: 2 µg/mL (≈ 1.95 µM) | MIC [21]: 2 µg/mL (≈ 1.95 µM) | MIC [22]: 1 µg/mL (≈ 0.973 µM) | MIC [23]: 2 µg/mL (≈ 1.95 µM) | MIC ([24]; agar-dilution, Ampicillin-resistant strain, read-out: MIC): > 128 µg/mL | MIC [25]: 2 µg/mL (≈ 1.95 µM) | MIC ([26]; agar-dilution, read-out: MIC): > 128 µg/mL | MIC ([27]; agar-dilution, read-out: MIC): > 128 µg/mL | MIC [28]: 2 µg/mL (≈ 1.95 µM) | MIC [29]: > 128 µg/mL | MIC ([30]; agar-dilution, read-out: MIC): > 128 µg/mL | MIC [31]: 0.5 µg/mL (≈ 0.486 µM) | MIC [32]: 2 µg/mL (≈ 1.95 µM)

Reference: patent publication US4820694A, “Modifications of 3-O-demethylmycinose in macrocin and lactenocin” (priority 1986, dated 1989)
